Data on one compound can be found in patent publication US9834525B2, “Inhibitors of paxillin function and related compositions and methods” (UNIVERSITY OF TENNESSEE RESEARCH FOUNDATION, priority 2015, dated 2017).

SMILES strings stand for the structures. “Also recorded” adds a separate entry of the source.

For one data set, the system named is ERK1/2. Kind of data set: Western blot of VEGF-induced ERK1/2 phosphorylation in REC. The data set is classed as cell-based, human. As to conditions: REC under VEGF; compound (II-4) 500 nM, SU6656 1 μM. How it is done: REC, Mel 270, OMM 2.5 under Hepatocyte Growth Factor (HGF) or Vascular Endothelial Growth Factor (VEGF) stimulation conditions: Cell lysates were collected in RIPA lysis buffer (50 mM Tris-HCl, pH 7.4, 150 mM NaCl, 2 mM EDTA, 1% Nonidet P-40, 0.1% SDS) with protease 1× inhibitor cocktail (Roche; Indianapolis, Ind.). Lysates were kept on ice and centrifuged at 10,000×g×10 minutes and total protein was measured using the BCA assay (Pierce, Rockford, Ill.). Protein samples were mixed with 4×LDS loading buffer with 2.5% 2-mercaptoethanol (Sigma-Aldrich), heated to 70° C. for 10 minutes, and loaded on NuPAGE 4-12% Bis-Tris gel (Invitrogen, Carlsbad, Calif.). Immunoblotting was performed with nitrocellulose membranes (Bio-Rad, Hercules, Calif.) at 170-mA start and 110-mA end at 25 V for two hours in NuPAGE transfer buffer (Invitrogen) containing 20% methanol. Membranes were blocked using Odyssey blocking buffer (LI-COR; Lincoln, Nebr.) for one hour at room temperature with gentle shaking Membranes were then incubated at 4° C. with specific primary antibodies (1:1000) overnight. Cellular protein was normalized using rabbit-GAPDH or mouse-α-Tubulin [1:20,000] (Cell Signaling, Danvers, Mass.; LI-COR, respectively). […] Dual-channel infrared scan and quantitation of immunoblots were conducted using the ODYSSEY Sa infrared imaging system with Image Studio (Ver. 3.1.4) (LI-COR). […]

A short description of data set [1]: Microsomal stability, pooled human liver microsomes. The data set is classed as in vitro ADME. How it is done:
Microsomal stability of compound (II-4) (1 μM) was assessed in pooled liver microsomes (human, mouse, and rat) (FIG. 7). Briefly, compound (II-4) was incubated in duplicate with microsomes at 37° C. Reactions contained microsomal protein in 100 mM potassium phosphate, 2 mM NADPH, 3 mM MgCl2, pH 7.4. NADPH was omitted to detect NADPH-free degradation. At 60 minutes, the reaction was stopped by adding ice-cold methanol containing internal standard. Samples were centrifuged to remove precipitated protein, and the supernatants were analyzed by LC/MS/MS to quantitate the remaining parent.
Microsomal stability of compound (II-4) (1 μM) was assessed in pooled liver microsomes (human, mouse, and rat) (FIG. 23). Briefly, compound (II-4) was incubated in duplicate with microsomes at 37° C. Reactions contained microsomal protein in 100 mM potassium phosphate, 2 mM NADPH, 3 mM MgCl2, pH 7.4. NADPH was omitted to detect NADPH-free degradation. At 60 min, the reaction was stopped by adding ice-cold methanol (+ internal standard). Samples were centrifuged to remove precipitated protein, and the supernatants were analyzed by LC/MS/MS to quantitate the remaining parent.
On the technique in general: Liver microsomes are vesicles of endoplasmic reticulum, rich in cytochrome P450 enzymes.

Turning to `COc1cc(C2OC(=O)Nc3c2ccc2ccccc32)cc(OC)c1OC` (stereo not drawn) [compound II-4], the “VEGF-dependent ERK1/2 phosphorylation” value in the data set with ERK1/2 was “No significant change; also recorded: Neither SU6656 nor compound (II-4) decreased”. Also, the “susceptibility to P-450 interaction in human microsomes compared to rodent” value in data set [1] (human vs rodent microsomes) is given as “less susceptible”. In data set [1] (human, 1 μM, 37° C., 60 min), the “microsomal stability (metabolism by cytochrome P-450 enzymes)” value is given as “rapidly metabolized”.
